From ChEMBL document CHEMBL1201862, “PubChem BioAssay data set” (2004)
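A five-concentration, 48-hour dose response in 96-well plates underlies each endpoint, interpolated linearly between surrounding concentrations. Here, GI50 denotes the concentration required for 50% inhibition of growth.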 The source made the active and inactive calls. Cut-off read from the data, not from the text of the source: active = GI50 up to about 1.1 µM and inactive = higher.

Assays:
Assay in all cases: NCI tumour cell line growth inhibition, 48 h
CAKI-1 = test system: CAKI-1
EKVX = test system: EKVX
HOP-62 = test system: HOP-62
SW-620 = test system: SW-620
OVCAR-3 = test system: OVCAR-3
NCI-H460 = test system: NCI-H460
U-251 = test system: U-251
OVCAR-5 = test system: OVCAR-5
UACC-257 = test system: UACC-257
OVCAR-8 = test system: OVCAR-8
SK-MEL-5 = test system: SK-MEL-5
SK-MEL-2 = test system: SK-MEL-2
NCI-H226 = test system: NCI-H226
KM12 = test system: KM12
SK-OV-3 = test system: SK-OV-3
A498 = test system: A498
HCC 2998 = test system: HCC 2998
IGROV-1 = test system: IGROV-1
LOX IMVI = test system: LOX IMVI
Hs-578T = test system: Hs-578T

| SMILES | GI50 (CAKI-1) | GI50 (EKVX) | GI50 (HOP-62) | GI50 (SW-620) | GI50 (OVCAR-3) | GI50 (NCI-H460) | GI50 (U-251) | GI50 (OVCAR-5) | GI50 (UACC-257) | GI50 (OVCAR-8) | GI50 (SK-MEL-5) | GI50 (SK-MEL-2) | GI50 (NCI-H226) | GI50 (KM12) | GI50 (SK-OV-3) | GI50 (A498) | GI50 (HCC 2998) | GI50 (IGROV-1) | GI50 (LOX IMVI) | GI50 (Hs-578T) |
| --- | --- | --- | --- | --- | --- | --- | --- | --- | --- | --- | --- | --- | --- | --- | --- | --- | --- | --- | --- | --- |
| C[Si](C)(C)OC1CC(=O)OC1n1cc(F)c(=O)[nH]c1=O (stereo not given) | 23.9 µM (inactive) | 8.18 µM (inactive) | 15.7 µM (inactive) | 24.2 µM (inactive) | 52.8 µM (inactive) | 3.72 µM (inactive) | 43 µM (inactive) | > 89.9 µM (inactive) | > 64.3 µM (inactive) | 31.8 µM (inactive) | > 100 µM (inactive) | > 100 µM (inactive) | > 86.9 µM (inactive) | 18.1 µM (inactive) | > 95.7 µM (inactive) | > 100 µM (inactive) | 0.759 µM (active) | > 96.6 µM (inactive) | 7.94 µM (inactive) | – |
| CCCC[P+](CCCC)(CCCC)C(C(=O)OC)C(C(=O)OC)=C1SC(C(=O)OC)=C(C(=O)OC)S1 (stereo not given) | – | > 100 µM (inactive) | > 100 µM (inactive) | > 100 µM (inactive) | > 100 µM (inactive) | > 100 µM (inactive) | > 100 µM (inactive) | > 100 µM (inactive) | > 100 µM (inactive) | > 100 µM (inactive) | > 100 µM (inactive) | > 100 µM (inactive) | > 100 µM (inactive) | – | > 100 µM (inactive) | – | – | > 100 µM (inactive) | > 100 µM (inactive) | > 100 µM (inactive) |
| Cc1ccc(C)c(N2C(=O)C(=O)C(c3nc4ccccc4s3)/C(=N\c3cccc4c(=O)[nH][nH]c(=O)c34)C2=O)c1 (stereo not given) | > 100 µM (inactive) | > 100 µM (inactive) | > 100 µM (inactive) | > 100 µM (inactive) | > 100 µM (inactive) | > 100 µM (inactive) | > 100 µM (inactive) | > 100 µM (inactive) | > 100 µM (inactive) | > 100 µM (inactive) | > 100 µM (inactive) | > 100 µM (inactive) | > 100 µM (inactive) | > 100 µM (inactive) | > 100 µM (inactive) | > 100 µM (inactive) | > 100 µM (inactive) | > 100 µM (inactive) | > 100 µM (inactive) | – |
| C=C(CCCCC)CN1CCCC1[C@@](C)(O)CC(=O)OCC (stereo not given in full) | > 100 µM (inactive) | > 100 µM (inactive) | > 100 µM (inactive) | > 100 µM (inactive) | > 100 µM (inactive) | > 100 µM (inactive) | > 100 µM (inactive) | > 100 µM (inactive) | > 100 µM (inactive) | > 100 µM (inactive) | > 100 µM (inactive) | > 100 µM (inactive) | > 100 µM (inactive) | > 100 µM (inactive) | > 100 µM (inactive) | > 100 µM (inactive) | > 100 µM (inactive) | > 100 µM (inactive) | > 100 µM (inactive) | – |
| CC(=O)NCCSC(=O)c1ccccc1 | 0.0226 µM (active) | 2.77 µM (inactive) | 0.148 µM (active) | 0.0295 µM (active) | 0.243 µM (active) | < 0.033 µM (active) | 0.166 µM (active) | 0.141 µM (active) | 0.19 µM (active) | 0.192 µM (active) | 0.0171 µM (active) | 0.295 µM (active) | 0.116 µM (active) | 0.449 µM (active) | 1.13 µM (inactive) | – | – | 1.69 µM (inactive) | 0.124 µM (active) | 0.479 µM (active) |
| COc1cc(NCc2ccc3nc(OC)c(OC)nc3c2)cc(OC)c1OC | > 100 µM (inactive) | 77.4 µM (inactive) | > 100 µM (inactive) | > 100 µM (inactive) | > 100 µM (inactive) | > 100 µM (inactive) | > 100 µM (inactive) | > 100 µM (inactive) | > 100 µM (inactive) | > 100 µM (inactive) | > 100 µM (inactive) | > 100 µM (inactive) | > 100 µM (inactive) | > 100 µM (inactive) | > 100 µM (inactive) | > 100 µM (inactive) | > 100 µM (inactive) | > 100 µM (inactive) | > 100 µM (inactive) | – |
